Test results reported in article PMC5730616, “Inhibition of human kynurenine aminotransferase isozymes by estrogen and its derivatives” (Scientific Reports, 2017).
Several values for one entry are separate records, joined by “and”; a condition that tells them apart may be missing. Equal values may be shown once. Where a name gives a salt, the structure may show the parent alone. Read-outs that look alike come from different tables or passages of the source. One block for each molecule: values may come before it.

Experiments:
KAT-II [1] = target: T1, KAT-II (Homo sapiens, UniProt Q8N5Z0); design: method as in PMID 27367665; details: SPR, chi^2 0.34; cited from earlier work
T1 construct: made in house
T1 sequence (Q8N5Z0 30-425): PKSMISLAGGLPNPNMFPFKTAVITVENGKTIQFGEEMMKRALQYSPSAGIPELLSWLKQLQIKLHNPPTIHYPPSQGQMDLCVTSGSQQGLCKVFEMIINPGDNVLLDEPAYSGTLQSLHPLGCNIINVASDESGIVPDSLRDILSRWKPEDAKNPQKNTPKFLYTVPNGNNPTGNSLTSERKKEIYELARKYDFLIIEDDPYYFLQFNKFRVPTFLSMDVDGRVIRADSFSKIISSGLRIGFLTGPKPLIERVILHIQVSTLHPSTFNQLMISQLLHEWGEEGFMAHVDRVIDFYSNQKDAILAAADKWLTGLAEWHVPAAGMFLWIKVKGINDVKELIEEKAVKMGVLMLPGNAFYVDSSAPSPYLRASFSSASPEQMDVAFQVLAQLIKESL

KAT-II [2] = target: T1, KAT-II; design: method as in PMID 27367665; details: previously measured; cited from earlier work
KAT-II [3] = target: T1, KAT-II; assay: Surface plasmon resonance binding assay, steady state affinity model; details: KAT-II on CM5 chip, 25 °C, chi^2 0.481
Experimental: SPR was employed to evaluate the binding profile of estradiol disulfate on KAT-II. KAT-II was bound to a CM5 chip by amine coupling (achieving approximately 8000 RU). […] Due to the nature of this interaction, kinetic analyses could not be performed to directly evaluate the association and dissociation rate constants.
SPR binding affinity measurements were performed using the Biacore T200 with a CM5 sensor chip (GE Healthcare Life Sciences, Sydney, Australia). The experiment was prepared and obtained with the Biacore T200 Control Software, and analysed with the Biacore T200 Evaluation Software.
Prior to performing the SPR experiments, the solutions were filter sterilised for 10 min at 25 °C. KAT-II was diluted to a concentration of 350 µg/mL using sodium acetate (pH 4.5). The Biacore T200 compartment temperature was controlled at 25 °C and the flow rate was set to 10 µL/min. Using a 1:1 mixture of EDC (400 mM) and sulfo-NHS (100 mM), two flow cells on a CM5 sensor chip (containing a carboxymethylated dextran surface) were activated. Flow cell one contained a blank immobilisation (PBST buffer injection) and flow cell two had the prepared KAT-II sample injected. The two flow cells were deactivated using an injection of 1 M ethanolamine.
The analyte, estradiol disulfate, was prepared in running buffer (PBST with 5% DMSO) in a concentration series from 170 nM-43750 nM. […]

KAT-II [4] = target: T1, KAT-II; assay: HPLC inhibition assay on recombinant human KAT-II (KYNA production); assay type: biochemical
Experimental: GraphPad Prism v7.02 software[59] was used to develop a nonlinear regression fit of the data collected in the inhibition assays. The IC50 is reported with the standard error.
The expression and purification of recombinant KAT-I and KAT-II protein was completed as previously described[60],[61].
The KAT inhibition assay was based on that described previously. […] Following incubation, the reaction was terminated by adding formic acid (0.8 M) in a 1:1 ratio. 50 µL of the mixture was transferred into a vial with 950 µL of water for HPLC analysis.
The production of KYNA was measured using HPLC with UV detection at a wavelength of 330 nm, using a C18 reverse-phase column, and 50% (v/v) water and 50% (v/v) methanol mobile phase. The data was collected in triplicate.

human KAT-I = target: T2, human KAT-I (Homo sapiens, UniProt Q16773); assay: HPLC inhibition assay on recombinant human KAT-I (KYNA production); assay type: biochemical
T2 sequence (Q16773 1-422): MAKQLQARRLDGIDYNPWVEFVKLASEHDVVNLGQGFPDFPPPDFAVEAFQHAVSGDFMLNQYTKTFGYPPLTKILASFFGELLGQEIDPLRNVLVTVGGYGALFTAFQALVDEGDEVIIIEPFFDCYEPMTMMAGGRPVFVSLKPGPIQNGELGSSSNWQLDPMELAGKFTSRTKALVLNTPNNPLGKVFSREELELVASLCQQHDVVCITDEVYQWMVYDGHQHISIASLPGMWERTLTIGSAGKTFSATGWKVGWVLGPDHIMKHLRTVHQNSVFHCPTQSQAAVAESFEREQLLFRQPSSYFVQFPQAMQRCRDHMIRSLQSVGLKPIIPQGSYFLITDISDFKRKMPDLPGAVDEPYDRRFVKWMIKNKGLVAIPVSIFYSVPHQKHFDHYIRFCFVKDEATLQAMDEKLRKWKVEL
Experimental: The KAT inhibition assay was based on that described previously[35]. 0.7 µg of KAT-I or KAT-II was incubated at 37 °C for 10 minutes in a 50 µL reaction mixture containing PLP (50 µM), α-ketoglutarate (5 mM), L-KYN (5 mM) in PBS, pH 7.4, and the inhibitor studied (1–2000 µM). Following incubation, the reaction was terminated by adding formic acid (0.8 M) in a 1:1 ratio. 50 µL of the mixture was transferred into a vial with 950 µL of water for HPLC analysis.

[5] = recombinant human KAT-II, inhibitor 1–2000 µM, read-out: IC50 on KAT-II
[6] = recombinant human KAT-I, inhibitor 1–2000 µM, read-out: IC50 on KAT-I

Compound: O=C(O)C(Cc1ccccc1)N1C(=O)c2cc(Cl)c(Cl)cc2C1=O (stereo not drawn) [NS-1502]
Kd (KAT-II [1]): 7.2 µM | IC50 (KAT-II [2]): 315 µM

Compound: C[C@]12CC[C@@H]3c4ccc(OS(=O)(=O)O)cc4CC[C@H]3[C@@H]1CC[C@@H]2OS(=O)(=O)O [estradiol disulfate, estradiol 3,17-disulfate dipotassium salt]
Kd (KAT-II [3]): 5.05 µM | Increase of inhibition compared to estradiol (KAT-II [4]; KAT-I and KAT-II inhibition assays, attributed to the 17-sulfate moiety): 10–100 fold | IC50 (KAT-II [4]; recombinant human KAT-II, PLP 50 µM, L-KYN 5 mM, 37 °C 10 min, ± standard error, read-out: IC50 on KAT-II): 26.3 µM | Reversibility of KAT-II inhibition (KAT-II [4]; shown by varying PLP concentration in the reaction mixture): reversible | IC50 (human KAT-I; recombinant human KAT-I, PLP 50 µM, L-KYN 5 mM, 37 °C 10 min, ± standard error, read-out: IC50 on KAT-I): 292 µM

IC50 (KAT-II [4]; [5]): > 2000 µM and ~2000 µM | IC50 (human KAT-I; [6]): > 2000 µM
Compound: C[C@]12CCC3c4ccc(OS(=O)(=O)O)cc4CCC3C1CCC2=O (stereo partly drawn) [estrone sulfate, estrone sulfate potassium salt]

IC50 (KAT-II [4]; [5]): > 2000 µM | IC50 (human KAT-I; [6]): > 2000 µM
Compound: C[C@]12CCC3c4ccc(OS(=O)(=O)O)cc4CCC3C1CC[C@@H]2O (stereo partly drawn) [estradiol 3-sulfate, estradiol 3-sulfate sodium salt]

Compound: CC1COc2c(N3CCN(N)CC3)c(F)cc3c(=O)c(C(=O)O)cn1c23 (stereo not drawn) [BFF-122]
IC50 (KAT-II [2]): 15 to 20 µM

Compound: NC1Cc2ccccc2N(O)C1=O (stereo not drawn) [PF-04859989, reference compound]
IC50 (KAT-II [2]): 1 to 3 µM

Compound: C[C@]12CC[C@@H]3c4ccc(O)cc4CC[C@H]3[C@@H]1CC[C@@H]2O [estradiol, reference compound]
IC50 (KAT-II [4]): > 2000 µM | IC50 (human KAT-I): > 2000 µM
